In US11567085B2, “Photo-cleavable surfactants” (Wisconsin Alumni Research Foundation, priority 2018, dated 2023):

What was measured:
cardiac tissue proteins = assay: Surfactant-aided protein extraction from insoluble cardiac tissue pellet, SDS-PAGE and protein assay; details: 0.5% surfactant in 25 mM NH4HCO3; SDS-PAGE and Bradford protein assay (FIG. 16)
Procedure: Data presented were based on three independent experiments (n=3). Error bars represent standard error of the mean.
Protein extraction from cardiac tissue. The frozen tissue samples (˜500 mg) were cut into small pieces and washed with PBS buffer containing protease inhibitors and reducing agent (5 mM DTT, 1 mM PMSF, 1× protease inhibitor cocktail). […] The homogenate was centrifuged at 211,750×g using Beckman Ultracentrifuge and a Ti-80 rotor for 1 h. The supernatant after the first HEPES extraction was removed and saved as “E1” extraction. The HEPES extraction was repeated on the resulting pellet and saved as “E2”. After the second HEPES extraction, the tissue pellet was suspended in 25 mM NH4HCO3 and evenly divided into smaller aliquots. In one aliquot, 25 mM NH4HCO3 buffer with no surfactant (NS) was used in a 1:1 ratio (homogenate:buffer) and labeled as “E3”. In the other aliquots, surfactants (1% in 25 mM NH4HCO3) were individually added to the other aliquots in a 1:1 ratio (homogenate:surfactant) and labeled as “E3” following incubation and centrifugation.

[1] = assay type: physicochemical
Procedure: Several degradation conditions were compared (i.e., organic vs. aqueous solutions in the presence or absence of acid and reducing agents) to determine the most favorable conditions (FIG. 11).
UV-Vis degradation. […] The samples were diluted to a final volume of 1 mL in H2O. A UV-Vis spectrum was taken from each sample with a Varian Cary 50 UV-Visible spectrophotometer (background correction, medium scan rate, 600-200 nm).

Compound: CCCCCCCCCCCC1(C)OCC(COCCCS(=O)(=O)[O-])O1.[Na+] (stereo not drawn) [RG]
- protein solubilization ability (cardiac tissue proteins): drastically better protein solubilization ability

Compound: 4-hexylphenylazosulfonate
- degradation time upon UV irradiation [1]: 30 to 150 s

Compound: CCCCCCCCCCC(OC(=O)NCCCS(=O)(=O)[O-])c1ccco1.[Na+] (stereo not drawn) [PM]
- protein solubilization ability (cardiac tissue proteins): drastically better protein solubilization ability
